According to patent publication US10800733B2, “Acetophenone compound, preparation method therefor, and application thereof in blood lipid regulation” (Shanghai Bioenergy Medicine Science & Technology Co., Ltd., priority 2017, dated 2020):

Tested on: hyperlipidemia of SD rats
Test: Therapeutic effect on hyperlipidemia of SD rats (lipid emulsion model)
Assay type: in vivo
Details: for CHO (serum cholesterol) / HDL-C (high density lipoprotein) / LDL-C (low density lipoprotein) / TG (serum triglyceride): 21 days of continuous administration with lipid emulsion, fasted 12 h, X ± SD, 5 animals per group, serum; for blood lipid-reducing effect (in words) / reduction ratio of cholesterol (blood lipid-reducing effect): 21 days; for blood lipid-reducing effect (in words): hyperlipidemic SD rats, as shown by Table 1; for reduction ratio of cholesterol (blood lipid-reducing effect): (CHO of Model group - CHO of pharmaceutical-administrated group)/CHO of Model group*100%
Method: 1. Therapeutic Effect on Hyperlipidemia of SD Rats
Preparation process of lipid emulsion: 500 g of lard oil was taken, placed in a container, and heated to melt. When the temperature rose to 100° C., 200 g of cholesterol was added. After complete dissolution, 20 g of propylthiouracil was further added. The resulted mixture was stirred well, and added with 500 ml of Tween 80 after dissolution, resulting in an oil phase. At the same time, 600 mL of distilled water and 400 mL of 1,2-propanediol were taken and heated to 60° C. in a water bath, and then was added with 40 g of sodium deoxycholate. The resulted mixture was stirred well until complete dissolution was achieved, so as to give an aqueous phase. The aqueous phase was added into the oil phase and mixed well to give a lipid emulsion.
Process for modeling: Animals were fed adaptively for 3 days. Then, according to the body weight, 5 animals were selected as control and the remaining animals were intragastrically administered with the lipid emulsion during 9:00 to 11:00 am every day with 1 mL/100 g body weight for 2 weeks. After fasted for 12 hours, 1 mL of blood was collected from the orbits of the animals, and was determined by Hitachi Automatic Biochemical Analyzer 7080 for serum cholesterol (CHO), triglyceride (TG), low density lipoprotein (LDL-C) and high density lipoprotein (HDL-C). The animals having 4-7 mmol/L of CHO were used in the experiments.
The animals were continued with the intragastric administration of the lipid emulsion, and at the same time, the pharmaceutical-administered groups were administrated with the corresponding doses of pharmaceuticals, while the Model group was administrated with an equal volume of the solvent. The animals were administrated with the lipid emulsion in the morning and pharmaceuticals in the afternoon. The animals were measured for the body weight every Monday, and were observed. After 21 days of continuous administration, the animals were fasted for 12 hours. Then, 1 mL of blood was collected from the orbits, and was determined by Hitachi Automated Biochemical Analyzer 7080 for serum cholesterol (CHO), triglyceride (TG), low density lipoprotein (LDL-C) and high density lipoprotein (HDL-C).
The controls used in this experiment comprised Compound A and Simvastatin (also referred to as Sim herein).
The formula for calculating the blood lipid-reducing effect is: (CHO of Model group —CHO of pharmaceutical-administrated group)/CHO of Model group*100%. […] In this experiment, the effects of the compounds obtained herein for regulating blood lipids can be determined by using the blood cholesterol reduction as the main indicator, with reference to the decrease of triglyceride.

SMILES	CHO (serum cholesterol) (80 mg/kg)	HDL-C (high density lipoprotein) (80 mg/kg)	LDL-C (low density lipoprotein) (80 mg/kg)	TG (serum triglyceride) (80 mg/kg)	blood lipid-reducing effect (in words) (80 mg/kg)	reduction ratio of cholesterol (blood lipid-reducing effect) (80 mg/kg)	CHO (serum cholesterol) (10 mg/kg)	HDL-C (high density lipoprotein) (10 mg/kg)	LDL-C (low density lipoprotein) (10 mg/kg)	TG (serum triglyceride) (10 mg/kg)
CC(=O)c1ccc(O)c(OC(=O)c2cccnc2)c1 [Compound 05]	4.63 ± 0.41 mmol/L	1.95 ± 0.50 mmol/L	3.12 ± 0.34 mmol/L	0.56 ± 0.23 mmol/L	significantly reduce the level of cholesterol	56.56%	–	–	–	–
CC(=O)c1ccc(NC(=O)C(C)(C)Oc2ccc(Cl)cc2)cc1 [Compound 04]	4.90 ± 1.09 mmol/L	2.00 ± 0.52 mmol/L	3.27 ± 1.34 mmol/L	0.50 ± 0.15 mmol/L	significantly reduce the level of cholesterol	54.03%	–	–	–	–
CCC(C)(C)C(=O)O[C@H]1C[C@@H](C)C=C2C=C[C@H](C)[C@H](CC[C@@H]3C[C@@H](O)CC(=O)O3)[C@H]21 [Sim, Simvastatin, reference compound]	–	–	–	–	–	–	6.28 ± 0.76 mmol/L	1.65 ± 0.26 mmol/L	4.54 ± 0.36 mmol/L	0.60 ± 0.07 mmol/L
CC(=O)c1ccc(O)c(NC(=O)c2cccnc2)c1 [Compound 03]	4.56 ± 1.24 mmol/L	1.81 ± 0.27 mmol/L	3.14 ± 1.06 mmol/L	0.71 ± 0.16 mmol/L	significantly reduce the level of cholesterol	57.22%	–	–	–	–
CC(=O)c1ccc(NC(=O)C(C)(C)CCCOc2cc(C)ccc2C)cc1 [Compound 01]	–	2.02 ± 0.27 mmol/L	3.07 ± 1.25 mmol/L	0.47 ± 0.27 mmol/L	significantly reduce the level of cholesterol	59.75%	–	–	–	–
Cc1ccc(C)c(OCCCC(C)(C)C(=O)NCC(=O)c2ccc(O)cc2)c1 [Compound A, reference compound]	6.15 ± 2.12 mmol/L	1.41 ± 0.28 mmol/L	4.97 ± 1.07 mmol/L	0.58 ± 0.11 mmol/L	–	42.30%	–	–	–	–
CC(=O)c1ccc(O)c(NC(=O)C(C)(C)CCCOc2cc(C)ccc2C)c1 [Compound 02]	4.86 ± 1.08 mmol/L	1.94 ± 0.49 mmol/L	3.18 ± 0.71 mmol/L	0.51 ± 0.19 mmol/L	significantly reduce the level of cholesterol	54.40%	–	–	–	–
